# US20150105252A1, “SUBSTITUTED PYRAZOLES AS HERBICIDES” (E I DU PONT DE NEMOURS AND COMPANY, priority 2013, published 2015)
# Key:
# barnyardgrass [1] = test: Test A preemergence; assay type: in vivo, Echinochloa crus-galli; conditions: 0 to 100 scale
# From the text: (§1) Seeds of plant species selected from barnyardgrass (Echinochloa crus-galli), kochia (Kochia scoparia), common ragweed (Ambrosia elation), Italian ryegrass (Lolium multiflorum), crabgrass, large (large crabgrass, Digitaria sanguinalis), foxtail, giant (giant foxtail, Setaria faberii), morningglory (Ipomoea spp.), pigweed (redroot pigweed, Amaranthus retroflexus), velvetleaf (Abutilon theophrasti), wheat (Triticum aestivum), and corn (Zea mays) were planted into a blend of loam soil and sand and treated preemergence with a directed soil spray using test chemicals formulated in a non-phytotoxic solvent mixture which included a surfactant.
# (§2) At the same time, plants selected from these crop and weed species and also blackgrass (Alopecurus myosuroides), and galium (catchweed bedstraw, Galium aparine) were planted in pots containing the same blend of loam soil and sand and treated with postemergence applications of test chemicals formulated in the same manner. Plants ranged in height from 2 to 10 cm and were in the one- to two-leaf stage for the postemergence treatment. Treated plants and untreated controls were maintained in a greenhouse for approximately 10 days, after which time all treated plants were compared to untreated controls and visually evaluated for injury. Plant response ratings, summarized in Table A, are based on a 0 to 100 scale where 0 is no effect and 100 is complete control. A dash (-) response means no test result.
# crabgrass, large [2] = test: Test A preemergence; assay type: in vivo, Digitaria sanguinalis; conditions: 0 to 100 scale
# From the text: as §1, §2
# foxtail, giant [3] = test: Test A preemergence; assay type: in vivo, Setaria faberii; conditions: 0 to 100 scale
# From the text: as §1, §2
# morningglory [4] = test: Test A preemergence; assay type: in vivo, Ipomoea spp.; conditions: 0 to 100 scale
# From the text: as §1, §2
# pigweed [5] = test: Test A preemergence; assay type: in vivo, Amaranthus retroflexus; conditions: Preemergence, 0 to 100 scale, 0 no effect, 100 complete control
# From the text: as §1, §2
# velvetleaf [6] = test: Test A preemergence; assay type: in vivo, Abutilon theophrasti; conditions: 0 to 100 scale
# From the text: as §1, §2
# wheat [7] = test: Test A preemergence; assay type: in vivo, Triticum aestivum; conditions: 0 to 100 scale
# From the text: as §1, §2
# corn [8] = test: Test A preemergence; assay type: in vivo, Zea mays; conditions: 0 to 100 scale
# From the text: as §1, §2
# barnyardgrass [9] = test: Test A postemergence; assay type: in vivo, Echinochloa crus-galli; conditions: Postemergence
# From the text: as §1, §2
# crabgrass, large [10] = test: Test A postemergence; assay type: in vivo, Digitaria sanguinalis
# From the text: as §1, §2
# foxtail, giant [11] = test: Test A postemergence; assay type: in vivo, Setaria faberii
# From the text: as §1, §2
# morningglory [12] = test: Test A postemergence; assay type: in vivo, Ipomoea spp.
# From the text: as §1, §2
# pigweed [13] = test: Test A postemergence; assay type: in vivo, Amaranthus retroflexus
# From the text: as §1, §2
# velvetleaf [14] = test: Test A postemergence; assay type: in vivo, Abutilon theophrasti
# From the text: as §1, §2
# wheat [15] = test: Test A postemergence; assay type: in vivo, Triticum aestivum
# From the text: as §1, §2
# corn [16] = test: Test A postemergence; assay type: in vivo, Zea mays
# From the text: as §1, §2
# [17] = Preemergence, 500 g ai/ha, 0 no effect, 100 complete control
# [18] = preemergence, 125 g ai/ha, visual injury, approx. 10 days
# [19] = 125 g ai/ha, 0 to 100 scale, 0 no effect, 100 complete control
# [20] = 500 g ai/ha, visual rating after approx. 10 days, 0 to 100 scale (0 no effect, 100 complete control)
# [21] = Postemergence, 500 g ai/ha, visual rating after approx. 10 days, 0 to 100 scale (0 no effect, 100 complete control)
# [22] = postemergence, 125 g ai/ha, about 10 days, visual rating on 0 to 100 scale (0 no effect, 100 complete control)
# [23] = Preemergence, 1000 g ai/ha, 0 no effect, 100 complete control
# [24] = 1000 g ai/ha, visual rating after approx. 10 days, 0 to 100 scale (0 no effect, 100 complete control)
# [25] = Postemergence, 1000 g ai/ha, visual rating after approx. 10 days, 0 to 100 scale (0 no effect, 100 complete control)
# [26] = Postemergence, 125 g ai/ha, 0 to 100 scale, 0 no effect, 100 complete control
smiles,measurement,setting,value
Cc1cc(C(=O)NCC(F)(F)F)nn1Cc1cccc(C(F)(F)F)c1F [Compound 9],Barnyardgrass plant response rating,barnyardgrass [1]; [17],10
same,Barnyardgrass plant response rating,barnyardgrass [1]; [18],0
same,"Crabgrass, Large plant response rating","crabgrass, large [2]; [17]",20
same,"Crabgrass, Large plant response rating","crabgrass, large [2]; [18]",0
same,"Foxtail, Giant plant response rating","foxtail, giant [3]; [17]",20
same,"Foxtail, Giant plant response rating","foxtail, giant [3]; [18]",0
same,Morningglory plant response rating,morningglory [4]; [17],0
same,Morningglory plant response rating,morningglory [4]; [18],0
same,Pigweed plant response rating,pigweed [5]; 500 g ai/ha,30
same,Velvetleaf plant response rating,velvetleaf [6]; [17],0
same,Velvetleaf plant response rating,velvetleaf [6]; [18],0
same,Wheat plant response rating,wheat [7]; [18],0
same,Corn plant response rating,corn [8]; [17],0
same,Corn plant response rating,corn [8]; [18],0
same,Barnyardgrass plant response rating,barnyardgrass [9]; [19],0
same,Barnyardgrass plant response rating,barnyardgrass [9]; [20],10
same,"Crabgrass, Large plant response rating","crabgrass, large [10]; [21]",0
same,"Crabgrass, Large plant response rating","crabgrass, large [10]; [22]",0
same,"Foxtail, Giant plant response rating","foxtail, giant [11]; [21]",0
same,"Foxtail, Giant plant response rating","foxtail, giant [11]; [22]",0
same,Morningglory plant response rating,morningglory [12]; [21],10
same,Morningglory plant response rating,morningglory [12]; [22],0
same,Pigweed plant response rating,pigweed [13]; [21],0
same,Pigweed plant response rating,pigweed [13]; [22],0
same,Velvetleaf plant response rating,velvetleaf [14]; [21],0
same,Velvetleaf plant response rating,velvetleaf [14]; [22],0
same,Wheat plant response rating,wheat [15]; [21],0
same,Wheat plant response rating,wheat [15]; [22],0
same,Corn plant response rating,corn [16]; [21],0
same,Corn plant response rating,corn [16]; [22],0
Cc1cc(C(=O)NCC(F)(F)F)nn1Cc1cc(F)cc(C(F)(F)F)c1 [Compound 13],Barnyardgrass plant response rating,barnyardgrass [1]; [17],0
same,Barnyardgrass plant response rating,barnyardgrass [1]; [18],0
same,"Crabgrass, Large plant response rating","crabgrass, large [2]; [17]",70
same,"Crabgrass, Large plant response rating","crabgrass, large [2]; [18]",10
same,"Foxtail, Giant plant response rating","foxtail, giant [3]; [17]",50
same,"Foxtail, Giant plant response rating","foxtail, giant [3]; [18]",0
same,Morningglory plant response rating,morningglory [4]; [18],0
same,Pigweed plant response rating,pigweed [5]; 500 g ai/ha,90
same,Velvetleaf plant response rating,velvetleaf [6]; [17],0
same,Velvetleaf plant response rating,velvetleaf [6]; [18],0
same,Wheat plant response rating,wheat [7]; [18],0
same,Corn plant response rating,corn [8]; [17],0
same,Corn plant response rating,corn [8]; [18],0
same,Barnyardgrass plant response rating,barnyardgrass [9]; [19],0
same,Barnyardgrass plant response rating,barnyardgrass [9]; [20],20
same,"Crabgrass, Large plant response rating","crabgrass, large [10]; [21]",30
same,"Crabgrass, Large plant response rating","crabgrass, large [10]; [22]",20
same,"Foxtail, Giant plant response rating","foxtail, giant [11]; [21]",20
same,"Foxtail, Giant plant response rating","foxtail, giant [11]; [22]",0
same,Morningglory plant response rating,morningglory [12]; [21],100
same,Morningglory plant response rating,morningglory [12]; [22],50
same,Pigweed plant response rating,pigweed [13]; [21],60
same,Pigweed plant response rating,pigweed [13]; [22],40
same,Velvetleaf plant response rating,velvetleaf [14]; [21],20
same,Velvetleaf plant response rating,velvetleaf [14]; [22],0
same,Wheat plant response rating,wheat [15]; [21],0
same,Wheat plant response rating,wheat [15]; [22],0
same,Corn plant response rating,corn [16]; [21],0
same,Corn plant response rating,corn [16]; [22],0
CCc1cc(C(=O)NC2CC2)nn1Cc1cccc(C(F)(F)F)c1 [Compound 15],Barnyardgrass plant response rating,barnyardgrass [1]; [23],90
same,"Crabgrass, Large plant response rating","crabgrass, large [2]; [23]",100
same,"Foxtail, Giant plant response rating","foxtail, giant [3]; [23]",100
same,Morningglory plant response rating,morningglory [4]; [23],90
same,Pigweed plant response rating,pigweed [5]; 1000 g ai/ha,90
same,Velvetleaf plant response rating,velvetleaf [6]; [23],100
same,Wheat plant response rating,wheat [7]; [23],20
same,Corn plant response rating,corn [8]; [23],20
same,Barnyardgrass plant response rating,barnyardgrass [9]; [24],80
same,"Crabgrass, Large plant response rating","crabgrass, large [10]; [25]",90
same,"Foxtail, Giant plant response rating","foxtail, giant [11]; [25]",90
same,Morningglory plant response rating,morningglory [12]; [25],100
same,Pigweed plant response rating,pigweed [13]; [25],80
same,Velvetleaf plant response rating,velvetleaf [14]; [25],100
same,Wheat plant response rating,wheat [15]; [25],50
same,Corn plant response rating,corn [16]; [25],70
CCCNC(=O)c1cc(SC)n(Cc2cccc(C(F)(F)F)c2)n1 [Compound 25],Barnyardgrass plant response rating,barnyardgrass [1]; [23],0
same,"Crabgrass, Large plant response rating","crabgrass, large [2]; [23]",20
same,"Foxtail, Giant plant response rating","foxtail, giant [3]; [23]",10
same,Morningglory plant response rating,morningglory [4]; [23],0
same,Pigweed plant response rating,pigweed [5]; 1000 g ai/ha,0
same,Velvetleaf plant response rating,velvetleaf [6]; [23],0
same,Wheat plant response rating,wheat [7]; [23],0
same,Corn plant response rating,corn [8]; [23],0
same,Barnyardgrass plant response rating,barnyardgrass [9]; [24],10
same,"Crabgrass, Large plant response rating","crabgrass, large [10]; [25]",30
same,"Foxtail, Giant plant response rating","foxtail, giant [11]; [25]",20
same,Morningglory plant response rating,morningglory [12]; [25],100
same,Pigweed plant response rating,pigweed [13]; [25],10
same,Velvetleaf plant response rating,velvetleaf [14]; [25],50
same,Wheat plant response rating,wheat [15]; [25],0
same,Corn plant response rating,corn [16]; [25],40
O=C(NC1CC1)c1cc(CCCl)n(Cc2ccnc(C(F)(F)F)c2)n1 [Compound 194],Morningglory plant response rating,morningglory [12]; [26],50
same,Pigweed plant response rating,pigweed [13]; [26],50
same,Velvetleaf plant response rating,velvetleaf [14]; [26],60
same,Wheat plant response rating,wheat [15]; [26],0
